Data published in patent publication US9695155B2, “Herbicidal substituted pyrimidinyloxy benzene compounds” (E. I. DU PONT DE NEMOURS AND COMPANY, priority 2013, dated 2017).

Tests used:
[1] = test system: deadnettle; assay: Test D preemergence; format: in vivo, Lamium amplexicaule; conditions: Lamium amplexicaule, pre-emergence
Outline: (§1)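 Visual rating vs untreated controls, 0 = no effect, 100 = complete control, taken 7–21 d after treatment. Pre: silt loam soil. Post: potting medium, plants 2–18 cm, 1–4 leaf. Formulation: non-phytotoxic solvent mix + surfactant.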

[2] = test system: field violet; assay: Test D preemergence; format: in vivo, Viola arvensis; conditions: Viola arvensis, pre-emergence
Outline: as §1

[3] = test system: winter barley; assay: Test D postemergence; format: in vivo, Hordeum vulgare; conditions: Hordeum vulgare, post-emergence, Postemergence, scale 0 to 100 (0 no effect, 100 complete control), read-out: Plant response rating, Barley, Winter
Outline: as §1

[4] = test system: spring barley; assay: Test D postemergence; format: in vivo, Hordeum vulgare; conditions: Hordeum vulgare, post-emergence, Postemergence, scale 0 to 100 (0 no effect, 100 complete control), read-out: Plant response rating, Barley, Spring
Outline: as §1

[5] = test system: hairy beggarticks; assay: Test E postemergence; format: in vivo, Bidens pilosa; conditions: Bidens pilosa, post-emergence, read-out: Plant response rating, Beggarticks
Outline: (§2)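 Test chemicals formulated in a non-phytotoxic solvent mixture containing a surfactant were applied preemergence to seeds in silt loam soil or postemergence to plants at the 1- to 4-leaf stage in potting mix. After 14 to 21 days in a greenhouse, injury was visually rated against controls on a 0-100 scale (0 = no effect, 100 = complete control).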

[6] = test system: wild buckwheat; assay: Test D preemergence; format: in vivo, Polygonum convolvulus; conditions: Fallopia convolvulus, pre-emergence
Outline: as §1

[7] = test system: galium; assay: Test D postemergence; format: in vivo, Galium aparine; conditions: Galium, post-emergence
Outline: as §1

[8] = test system: winter wheat; assay: Test D preemergence; format: in vivo, Triticum aestivum; conditions: Triticum aestivum, pre-emergence
Outline: as §1

[9] = test system: spring wheat; assay: Test D preemergence; format: in vivo, Triticum aestivum; conditions: Triticum aestivum, pre-emergence
Outline: as §1

[10] = test system: wild oat; assay: Test D preemergence; format: in vivo, Avena fatua; conditions: Avena fatua, pre-emergence
Outline: as §1

[11] = test system: Italian ryegrass; assay: Test E postemergence; format: in vivo, Lolium multiflorum; conditions: Lolium multiflorum, post-emergence, read-out: Plant response rating, Ryegrass, Italian
Outline: as §2

[12] = test system: cocklebur; assay: Test E preemergence; format: in vivo, Xanthium strumarium; conditions: 125 g ai/ha, scale 0 to 100, 0 no effect, 100 complete control
Outline: as §2

[13] = Postemergence, 31 g ai/ha, scale 0 to 100
[14] = Postemergence, 62 g ai/ha, scale 0 to 100
[15] = Postemergence, 125 g ai/ha, scale 0 to 100
[16] = postemergence, 8 g ai/ha, scale 0 to 100, 0 no effect, 100 complete control
[17] = postemergence, 16 g ai/ha, scale 0 to 100, 0 no effect, 100 complete control

SMILES: Clc1cnc(Oc2ccccc2-n2cc(Br)cn2)nc1 [Compound 7, 2-[2-(4-bromo-1H-pyrazol-1-yl)phenoxy]-5-chloropyrimidine]
- pest or weed control at 16 g/ha ([1]; 16 g ai/ha, scale 0 (no effect) to 100 (complete control), read-out: Plant response rating, Deadnettle): 0%
- pest or weed control at 31 g/ha ([1]; 31 g ai/ha, scale 0-100, read-out: Plant response rating, Deadnettle): 0%
- pest or weed control at 62 g/ha ([1]; 62 g ai/ha, scale 0-100, read-out: Plant response rating, Deadnettle): 10%
- pest or weed control at 125 g/ha ([1]; 125 g ai/ha, scale 0-100, read-out: Plant response rating, Deadnettle): 20%
- pest or weed control at 250 g/ha ([1]; 250 g ai/ha, scale 0-100, read-out: Plant response rating, Deadnettle): 80%
- pest or weed control at 16 g/ha ([2]; 16 g ai/ha, scale 0 (no effect) to 100 (complete control), read-out: Plant response rating, Field Violet): 0%
- pest or weed control at 31 g/ha ([2]; 31 g ai/ha, scale 0-100, read-out: Plant response rating, Field Violet): 0%
- pest or weed control at 62 g/ha ([2]; 62 g ai/ha, scale 0-100, read-out: Plant response rating, Field Violet): 20%
- pest or weed control at 125 g/ha ([2]; 125 g ai/ha, scale 0-100, read-out: Plant response rating, Field Violet): 70%
- pest or weed control at 250 g/ha ([2]; 250 g ai/ha, scale 0-100, read-out: Plant response rating, Field Violet): 80%
- plant injury at 16 g/ha ([3]; 16 g ai/ha): 0%
- plant injury at 31 g/ha ([3]; 31 g ai/ha): 0%
- plant injury at 62 g/ha ([3]; 62 g ai/ha): 0%
- plant injury at 125 g/ha ([3]; 125 g ai/ha): 0%
- plant injury at 250 g/ha ([3]; 250 g ai/ha): 0%
- plant injury at 16 g/ha ([4]; 16 g ai/ha): 0%
- plant injury at 31 g/ha ([4]; 31 g ai/ha): 0%
- plant injury at 62 g/ha ([4]; 62 g ai/ha): 0%
- plant injury at 125 g/ha ([4]; 125 g ai/ha): 5%
- plant injury at 250 g/ha ([4]; 250 g ai/ha): 5%
- pest or weed control at 31 g/ha [5, 13]: 40%
- pest or weed control at 62 g/ha [5, 14]: 50%
- pest or weed control at 125 g/ha [5, 15]: 60%
- pest or weed control at 8 g/ha [5, 16]: 25%
- pest or weed control at 16 g/ha [5, 17]: 35%
- pest or weed control at 16 g/ha ([6]; 16 g ai/ha, scale 0 (no effect) to 100 (complete control), read-out: Plant response rating, Buckwheat, Wild): 0%
- pest or weed control at 31 g/ha ([6]; 31 g ai/ha, scale 0-100, read-out: Plant response rating, Buckwheat, Wild): 0%
- pest or weed control at 62 g/ha ([6]; 62 g ai/ha, scale 0-100, read-out: Plant response rating, Buckwheat, Wild): 75%
- pest or weed control at 125 g/ha ([6]; 125 g ai/ha, scale 0-100, read-out: Plant response rating, Buckwheat, Wild): 80%
- pest or weed control at 250 g/ha ([6]; 250 g ai/ha, scale 0-100, read-out: Plant response rating, Buckwheat, Wild): 90%
- pest or weed control at 16 g/ha ([7]; 16 g ai/ha, scale 0-100, read-out: Plant response rating, Galium): 20%
- pest or weed control at 31 g/ha ([7]; 31 g ai/ha, scale 0 to 100 (0 no effect, 100 complete control), read-out: Plant response rating, Galium): 40%
- pest or weed control at 62 g/ha ([7]; 62 g ai/ha, scale 0 to 100 (0 no effect, 100 complete control), read-out: Plant response rating, Galium): 70%
- pest or weed control at 125 g/ha ([7]; 125 g ai/ha, scale 0 to 100 (0 no effect, 100 complete control), read-out: Plant response rating, Galium): 80%
- pest or weed control at 250 g/ha ([7]; 250 g ai/ha, scale 0 to 100 (0 no effect, 100 complete control), read-out: Plant response rating, Galium): 90%
- plant injury at 16 g/ha ([8]; 16 g ai/ha, scale 0 (no effect) to 100 (complete control), read-out: Plant response rating, Wheat, Winter): 0%
- plant injury at 31 g/ha ([8]; 31 g ai/ha, scale 0 (no effect) to 100 (complete control), read-out: Plant response rating, Wheat, Winter): 0%
- plant injury at 62 g/ha ([8]; 62 g ai/ha, scale 0-100, read-out: Plant response rating, Wheat, Winter): 0%
- plant injury at 125 g/ha ([8]; 125 g ai/ha, scale 0-100, read-out: Plant response rating, Wheat, Winter): 5%
- plant injury at 250 g/ha ([8]; 250 g ai/ha, scale 0-100, read-out: Plant response rating, Wheat, Winter): 10%
- plant injury at 16 g/ha ([9]; 16 g ai/ha, scale 0 (no effect) to 100 (complete control), read-out: Plant response rating, Wheat, Spring): 0%
- plant injury at 31 g/ha ([9]; 31 g ai/ha, scale 0 (no effect) to 100 (complete control), read-out: Plant response rating, Wheat, Spring): 0%
- plant injury at 62 g/ha ([9]; 62 g ai/ha, scale 0-100, read-out: Plant response rating, Wheat, Spring): 0%
- plant injury at 125 g/ha ([9]; 125 g ai/ha, scale 0-100, read-out: Plant response rating, Wheat, Spring): 0%
- plant injury at 250 g/ha ([9]; 250 g ai/ha, scale 0-100, read-out: Plant response rating, Wheat, Spring): 0%
- pest or weed control at 16 g/ha ([10]; 16 g ai/ha, scale 0 (no effect) to 100 (complete control), read-out: Plant response rating, Oat, Wild): 0%
- pest or weed control at 31 g/ha ([10]; 31 g ai/ha, scale 0-100, read-out: Plant response rating, Oat, Wild): 0%
- pest or weed control at 62 g/ha ([10]; 62 g ai/ha, scale 0-100, read-out: Plant response rating, Oat, Wild): 0%
- pest or weed control at 125 g/ha ([10]; 125 g ai/ha, scale 0-100, read-out: Plant response rating, Oat, Wild): 10%
- pest or weed control at 250 g/ha ([10]; 250 g ai/ha, scale 0-100, read-out: Plant response rating, Oat, Wild): 10%
- pest or weed control at 31 g/ha [11, 13]: 0%
- pest or weed control at 62 g/ha [11, 14]: 0%
- pest or weed control at 125 g/ha [11, 15]: 0%
- pest or weed control at 8 g/ha [11, 16]: 0%
- pest or weed control at 16 g/ha [11, 17]: 0%
- Plant response rating, Cocklebur [12]: 0
